# Test results as given in PubChem BioAssay AID2060902 (Molecular Pharmacology Branch, DTP, NCI, 2025).
# Test system: 485368-065-R3-J5-PDC spheroids with HUVEC/MSC, viability
# Assay: Anticancer human tumor 485368-065-R3-J5-PDC patient-derived pancreatic carcinoma cell line growth inhibition [RAS]
# Settings: for IC50: curve of first compound; for viability, T/C: stronger effect = lower value
# How it was run: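 Multi-cell-type spheroids: tumor cells plus HUVEC endothelial cells and mesenchymal stem cells. RAS-pathway inhibitors were combined with targeted agents, each dosed in half-log steps down from clinical Cmax, or from 10 microM when Cmax was unknown.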
# [1] = second compound 0.000949 µM, first compound 0.0316 µM
# [2] = second compound 0.000949 µM, first compound 0.1 µM
# [3] = second compound 0.000949 µM, first compound 0.316 µM
# [4] = second compound 0.000949 µM, first compound 1 µM
# [5] = second compound 0.000949 µM, first compound 3.16 µM
# [6] = second compound 0.000949 µM, first compound 10 µM
# [7] = second compound 0.003 µM, first compound 0.0316 µM
# [8] = second compound 0.003 µM, first compound 0.1 µM
# [9] = second compound 0.003 µM, first compound 0.316 µM
# [10] = second compound 0.003 µM, first compound 1 µM
# [11] = second compound 0.003 µM, first compound 3.16 µM
# [12] = second compound 0.003 µM, first compound 10 µM
# [13] = second compound 0.00949 µM, first compound 0.0316 µM
# [14] = second compound 0.00949 µM, first compound 0.1 µM
# [15] = second compound 0.00949 µM, first compound 0.316 µM
# [16] = second compound 0.00949 µM, first compound 1 µM
# [17] = second compound 0.00949 µM, first compound 3.16 µM
# [18] = second compound 0.00949 µM, first compound 10 µM
# [19] = second compound 0.03 µM, first compound 0.0316 µM
# [20] = second compound 0.03 µM, first compound 0.1 µM
# [21] = second compound 0.03 µM, first compound 0.316 µM
# [22] = second compound 0.03 µM, first compound 1 µM
# [23] = second compound 0.03 µM, first compound 3.16 µM
# [24] = second compound 0.03 µM, first compound 10 µM
# [25] = second compound 0.0949 µM, first compound 0.0316 µM
# [26] = second compound 0.0949 µM, first compound 0.1 µM
# [27] = second compound 0.0949 µM, first compound 0.316 µM
# [28] = second compound 0.0949 µM, first compound 1 µM
# [29] = second compound 0.0949 µM, first compound 3.16 µM
# [30] = second compound 0.0949 µM, first compound 10 µM
# [31] = second compound 0.3 µM, first compound 0.0316 µM
# [32] = second compound 0.3 µM, first compound 0.1 µM
# [33] = second compound 0.3 µM, first compound 0.316 µM
# [34] = second compound 0.3 µM, first compound 1 µM
# [35] = second compound 0.3 µM, first compound 3.16 µM
# [36] = second compound 0.3 µM, first compound 10 µM
# 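Further: spheroids exposed to agents for seven days before readout.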
smiles,measurement,setting,value
Cc1nc(N2CCC3(CC2)COC(C)C3N)c(CO)nc1Sc1ccnc(N)c1Cl (stereo unspecified) + CCn1c(-c2cc(N3CCN(C)CC3)cnc2C(C)OC)c2c3cc(ccc31)-c1csc(n1)CC(NC(=O)C1CC1C)C(=O)N1CCCC(N1)C(=O)OCC(C)(C)C2,IC50,second compound 0.000949 µM,< 31.6 nM
same,IC50,second compound 0.003 µM,< 31.6 nM
same,IC50,second compound 0.00949 µM,< 31.6 nM
same,IC50,second compound 0.03 µM,< 31.6 nM
same,IC50,second compound 0.0949 µM,< 31.6 nM
same,IC50,second compound 0.3 µM,< 31.6 nM
same,"viability, T/C",[1],26.1%
same,"viability, T/C",[2],18.6%
same,"viability, T/C",[3],17.5%
same,"viability, T/C",[4],15%
same,"viability, T/C",[5],11.8%
same,"viability, T/C",[6],8.82%
same,"viability, T/C",[7],18.4%
same,"viability, T/C",[8],15.9%
same,"viability, T/C",[9],12.8%
same,"viability, T/C",[10],10.7%
same,"viability, T/C",[11],7.85%
same,"viability, T/C",[12],4.73%
same,"viability, T/C",[13],13.4%
same,"viability, T/C",[14],12%
same,"viability, T/C",[15],9.63%
same,"viability, T/C",[16],9.5%
same,"viability, T/C",[17],4.66%
same,"viability, T/C",[18],2.44%
same,"viability, T/C",[19],10.6%
same,"viability, T/C",[20],10.2%
same,"viability, T/C",[21],8.7%
same,"viability, T/C",[22],5.25%
same,"viability, T/C",[23],2.49%
same,"viability, T/C",[24],1.01%
same,"viability, T/C",[25],8.37%
same,"viability, T/C",[26],8.31%
same,"viability, T/C",[27],6.58%
same,"viability, T/C",[28],3.11%
same,"viability, T/C",[29],1.36%
same,"viability, T/C",[30],0.74%
same,"viability, T/C",[31],7.17%
same,"viability, T/C",[32],6.81%
same,"viability, T/C",[33],5.18%
same,"viability, T/C",[34],2.89%
same,"viability, T/C",[35],1.79%
same,"viability, T/C",[36],0.68%
NC1c2ccccc2OC12CCN(c1cnc3c(N4CCCc5ncccc54)n[nH]c3n1)CC2 (stereo unspecified) + CCn1c(-c2cc(N3CCN(C)CC3)cnc2C(C)OC)c2c3cc(ccc31)-c1csc(n1)CC(NC(=O)C1CC1C)C(=O)N1CCCC(N1)C(=O)OCC(C)(C)C2,IC50,second compound 0.000949 µM,< 31.6 nM
same,IC50,second compound 0.003 µM,< 31.6 nM
same,IC50,second compound 0.00949 µM,< 31.6 nM
same,IC50,second compound 0.03 µM,< 31.6 nM
same,IC50,second compound 0.0949 µM,< 31.6 nM
same,IC50,second compound 0.3 µM,< 31.6 nM
same,"viability, T/C",[1],20.7%
same,"viability, T/C",[2],16%
same,"viability, T/C",[3],14.1%
same,"viability, T/C",[4],10.6%
same,"viability, T/C",[5],5.97%
same,"viability, T/C",[6],4.14%
same,"viability, T/C",[7],15.1%
same,"viability, T/C",[8],12.5%
same,"viability, T/C",[9],9.36%
same,"viability, T/C",[10],4.72%
same,"viability, T/C",[11],3.77%
same,"viability, T/C",[12],1.44%
same,"viability, T/C",[13],12.7%
same,"viability, T/C",[14],8.1%
same,"viability, T/C",[15],5.43%
same,"viability, T/C",[16],2.3%
same,"viability, T/C",[17],2.03%
same,"viability, T/C",[18],0.85%
same,"viability, T/C",[19],7.1%
same,"viability, T/C",[20],6.69%
same,"viability, T/C",[21],3.1%
same,"viability, T/C",[22],1.62%
same,"viability, T/C",[23],0.67%
same,"viability, T/C",[24],0.58%
same,"viability, T/C",[25],6.28%
same,"viability, T/C",[26],4.31%
same,"viability, T/C",[27],2.01%
same,"viability, T/C",[28],0.85%
same,"viability, T/C",[29],0.88%
same,"viability, T/C",[30],0.54%
same,"viability, T/C",[31],6.78%
same,"viability, T/C",[32],3.56%
same,"viability, T/C",[33],2.12%
same,"viability, T/C",[34],1%
same,"viability, T/C",[35],0.91%
same,"viability, T/C",[36],0.53%
Nc1ccn(C2OC(CO)C(O)C2(F)F)c(=O)n1 (stereo unspecified) + CCn1c(-c2cc(N3CCN(C)CC3)cnc2C(C)OC)c2c3cc(ccc31)-c1csc(n1)CC(NC(=O)C1CC1C)C(=O)N1CCCC(N1)C(=O)OCC(C)(C)C2,IC50,second compound 0.000949 µM,< 3.16 nM
same,IC50,second compound 0.003 µM,< 3.16 nM
same,IC50,second compound 0.00949 µM,< 3.16 nM
same,IC50,second compound 0.03 µM,< 3.16 nM
same,IC50,second compound 0.0949 µM,< 3.16 nM
same,IC50,second compound 0.3 µM,< 3.16 nM
same,"viability, T/C","second compound 0.000949 µM, first compound 0.00316 µM",31%
same,"viability, T/C","second compound 0.000949 µM, first compound 0.01 µM",15.8%
same,"viability, T/C",[1],8.79%
same,"viability, T/C",[2],6.33%
same,"viability, T/C",[3],6.11%
same,"viability, T/C",[4],5.93%
same,"viability, T/C","second compound 0.003 µM, first compound 0.00316 µM",18.5%
same,"viability, T/C","second compound 0.003 µM, first compound 0.01 µM",12.8%
same,"viability, T/C",[7],9.81%
same,"viability, T/C",[8],6.58%
same,"viability, T/C",[9],9.3%
same,"viability, T/C",[10],6.96%
same,"viability, T/C","second compound 0.00949 µM, first compound 0.00316 µM",13.5%
same,"viability, T/C","second compound 0.00949 µM, first compound 0.01 µM",10.9%
same,"viability, T/C",[13],9.06%
same,"viability, T/C",[14],8.14%
same,"viability, T/C",[15],8.28%
same,"viability, T/C",[16],7.89%
same,"viability, T/C","second compound 0.03 µM, first compound 0.00316 µM",10.7%
same,"viability, T/C","second compound 0.03 µM, first compound 0.01 µM",11%
same,"viability, T/C",[19],7.61%
same,"viability, T/C",[20],6.76%
same,"viability, T/C",[21],7.98%
same,"viability, T/C",[22],6.7%
same,"viability, T/C","second compound 0.0949 µM, first compound 0.00316 µM",9.63%
same,"viability, T/C","second compound 0.0949 µM, first compound 0.01 µM",8.06%
same,"viability, T/C",[25],7.29%
same,"viability, T/C",[26],5.92%
same,"viability, T/C",[27],6.25%
same,"viability, T/C",[28],6.08%
same,"viability, T/C","second compound 0.3 µM, first compound 0.00316 µM",6.95%
same,"viability, T/C","second compound 0.3 µM, first compound 0.01 µM",7.22%
same,"viability, T/C",[31],7.67%
same,"viability, T/C",[32],5.52%
same,"viability, T/C",[33],7.58%
same,"viability, T/C",[34],6.63%
